Data reported in ChEMBL document CHEMBL4138268, “Discovery of Spiro Oxazolidinediones as Selective, Orally Bioavailable Inhibitors of p300/CBP Histone Acetyltransferases” (ACS Med Chem Lett, 2018).

Assays:
[1] = target: CREB-binding protein/Histone acetyltransferase p300 (Homo sapiens, UniProt Q09472+Q92793); assay: Inhibition of p300/CBP (unknown origin) using biotinylated synthetic Histone H4 Peptide as substrate pretreated for 30 mins followed by substrate addition measured after 1 hr by radiometric scintillation proximity assay; assay type: protein assay
[2] = Permeability of the compound by PAMPA; assay type: ADME
[3] = AUC in mouse at 10 mg/kg, po; assay type: ADME, organism-based; details: in vivo
Mus musculus [4] = organism: Mus musculus; assay: Unbound plasma clearance in mouse; assay type: ADME, organism-based; details: in vivo
Mus musculus [5] = assay: Plasma clearance in mouse at 1 mg/kg, iv; assay type: ADME, organism-based; details: in vivo
[6] = Unbound intrinsic clearance in mouse microsomes; assay type: ADME, Microsome
[7] = Clearance in mouse microsomes; assay type: ADME, Microsome
[8] = Oral bioavailability in mouse; assay type: ADME, organism-based; details: in vivo
[9] = Unbound fraction in human microsomes; assay type: ADME, Microsome
[10] = Protein binding in mouse plasma; assay type: ADME, cell-free

Q: For `CC(C1CC1)N(Cc1ccccc1)C(=O)CN1C(=O)NC(Cc2c[nH]c3ccccc23)C1=O` (stereo not drawn), which IC50 [1] is on record?
A: 5.1 µM

Q: Which permeability [2] does the source give for `CNC(=O)Nc1ccc2c(c1)CC[C@]21NC(=O)N(CC(=O)N(Cc2ccccc2)[C@@H](C)C2CC2)C1=O` here?
A: 0.47 ×10⁻⁶ cm/s

Q: Which IC50 [1] does the source give for `C[C@@H](C1CC1)N(Cc1ccccc1)C(=O)CN1C(=O)NC(c2ccccc2)C1=O` (stereo partly drawn) here?
A: 7.6 µM

Q: With `CNC(=O)Nc1ccc2c(c1)CC[C@@]21OC(=O)N(CC(=O)N(Cc2ccccc2)[C@@H](C)C2CC2)C1=O` as the compound, how does the AUC [3] read?
A: 2500 ng·h/mL

Q: And the CL free (Mus musculus [4])?
A: 3100 mL/min/kg

Q: And the CL (Mus musculus [5])?
A: 27 mL/min/kg

Q: What about the CL free [6] of the same compound?
A: 3130 mL/min/kg

Q: And the CLint scaled [7]?
A: 1780 mL/min/kg

Q: And the bioavailability [8]?
A: 40%

Q: What about the Fu [9] of the same compound?
A: 0.48

Q: What about the PPB [10] of the same compound?
A: 99.1%

Q: What about the permeability [2] of the same compound?
A: 2.35 ×10⁻⁶ cm/s

Q: With `Cc1ccccc1C1NC(=O)N(CC(=O)N(Cc2ccccc2)[C@@H](C)C2CC2)C1=O` (stereo partly drawn) as the compound, how does the IC50 [1] read?
A: 2.7 µM
